Test results as given in patent publication US5559115A, “Oncogene function-inhibitory agent, method for inhibiting oncogene function, and treatment of cancer” (Terumo Kabushiki Kaisha, priority 1993, dated 1996).
Structures can show the parent of a compound that is named as a salt.

Columns and labels:
K-ras^ts-NRK cells = assay: Action mechanism: morphology / M phase observation in K-ras^ts-NRK cells; format: cell-based, rat; conditions: 33° C., 0.1 μg/ml, after one day
Experimental: Before the addition of the III-121C, the cells grew atop the other and had projections or processes on their surface (FIG. 9(a)).
The procedure as described above was repeated by replacing the III-121C with 0.1 μg/ml of vinblastine, 0.1 μg/ml of vincristine and 0.1 μg/ml of colchicine, which are known as microtubule formation inhibitors.

Ras protein = conditions: cited from earlier work
[1] = Acute toxicity (LD50) on mouse upon intravenous injection; format: in vivo; conditions: in vivo, intravenous injection
Experimental: Toxicity (LD50) on mouse of III-121C upon intravenous injection was measured.

K-ras-NRK cells = assay: Action mechanism: flow-cytometric DNA content analysis of K-ras-NRK cells; format: cell-based, rat; conditions: 24 hours; III-121C 0.3 and 1 μg/ml, vinblastine 0.1 μg/ml (FIG. 11)
Experimental: FIGS. 11(a) to (d) are graphs showing the results of flow-cytometric analysis wherein the number of cells is depicted in relation to their DNA content, upon addition of no reagent (FIG. 11(a)), 0.3 μg/ml of III-121C (FIG. 11(b)), 1 μg/ml of III-121C (FIG. 11(c)), and 0.1 μg/ml of vinblastine (FIG. 11(d)) to the K-ras NRK cell culture.
To the cells of K-ras-NRK in their propagation was added either one of III-121C and vinblastine. No reagent was added to the control cells. After 24 hours from the addition, the cells were fractionated with a cell sorter to examine the DNA quantity in relation to the number of the cells.

| Structure (SMILES) | number of circular or elongated cells in M phase (K-ras^ts-NRK cells) | LD50 [1] [mg/kg] | further results |
| --- | --- | --- | --- |
| COc1cc2c(c(OC)c1OC)-c1ccc(OC)c(=O)cc1[C@@H](NC(C)=O)CC2 [colchicine, reference compound] | a significant increase in the number of circular or elongated cells that are in their M phase of the cell cycle | – | – |
| CC[C@H](C)C(=O)O[C@H]1CCC=C2C=C[C@H](C)[C@H](CC[C@@H]3C[C@@H](O)CC(=O)O3)[C@H]21 [compactin] | – | – | inhibition of the action of the ras oncogene product (Ras protein) (Ras protein): capable of inhibiting the action of the ras oncogene product |
| Nc1nc2c(ncn2[C@@H]2O[C@H](CO)[C@@H](O)[C@H]2O)c(=O)o1 [oxanosin] | – | – | inhibition of the action of the ras oncogene product (Ras protein) (Ras protein): capable of inhibiting the action of the ras oncogene product |
| CC[C@]1(O)C[C@@H]2CN(CCc3c([nH]c4ccccc34)[C@@](C(=O)OC)(c3cc4c(cc3OC)N(C)[C@H]3[C@@](O)(C(=O)OC)[C@H](OC(C)=O)[C@]5(CC)C=CCN6CC[C@]43[C@@H]65)C2)C1 [vinblastine sulfate, reference compound] | – | 15.2 | – |
| CC[C@]1(O)C[C@@H]2CN(CCc3c([nH]c4ccccc34)[C@@](C(=O)OC)(c3cc4c(cc3OC)N(C)[C@H]3[C@@](O)(C(=O)OC)[C@H](OC(C)=O)[C@]5(CC)C=CCN6CC[C@]43[C@@H]65)C2)C1 [vinblastine, reference compound] | a significant increase in the number of circular or elongated cells that are in their M phase of the cell cycle | – | cell cycle / cell division inhibition (K-ras-NRK cells): inhibition of G2 /M phase in the cell cycle; distribution of DNA quantity in cells (K-ras-NRK cells): an increase in the number of cells having a relatively large quantity of DNA was observed |
| CC[C@]1(O)C[C@H]2CN(CCc3c([nH]c4ccccc34)[C@@](C(=O)OC)(c3cc4c(cc3OC)N(C=O)[C@H]3[C@@](O)(C(=O)OC)[C@H](OC(C)=O)[C@]5(CC)C=CCN6CC[C@]43[C@@H]65)C2)C1 [vincristine sulfate, reference compound] | – | 2.5 | – |
| CC[C@]1(O)C[C@H]2CN(CCc3c([nH]c4ccccc34)[C@@](C(=O)OC)(c3cc4c(cc3OC)N(C=O)[C@H]3[C@@](O)(C(=O)OC)[C@H](OC(C)=O)[C@]5(CC)C=CCN6CC[C@]43[C@@H]65)C2)C1 [vincristine, reference compound] | a significant increase in the number of circular or elongated cells that are in their M phase of the cell cycle | – | – |
| CC[C@]1(O)C[C@@H]2CN(CCc3c([nH]c4ccccc34)[C@@](C(=O)OC)(c3cc4c(cc3OC)N(C)[C@H]3[C@@](O)(C(N)=O)[C@H](O)[C@]5(CC)C=CCN6CC[C@]43[C@@H]65)C2)C1 [vindecine sulfate, reference compound] | – | 9.1 | – |
